Read-outs that look alike come from different tables or passages of the source.
Key:
guinea pig heart = assay: Second degree heart block (Wenckebach point), Langendorff guinea pig heart; details: for minimal effective concentration: Cavia porcellus, read-out: Wenckbach
Description: An electrode in the right ventricle monitored the electrocardiogram. […] The rate of agonist infusion was increased stepwise at intervals of 3-4 minutes until the appearance of second degree heart block (Wenckebach point).

A1 adenosine receptor [1] = biological target: T1, A1 adenosine receptor (Cavia porcellus, UniProt P47745)
T1 sequence (P47745 1-326): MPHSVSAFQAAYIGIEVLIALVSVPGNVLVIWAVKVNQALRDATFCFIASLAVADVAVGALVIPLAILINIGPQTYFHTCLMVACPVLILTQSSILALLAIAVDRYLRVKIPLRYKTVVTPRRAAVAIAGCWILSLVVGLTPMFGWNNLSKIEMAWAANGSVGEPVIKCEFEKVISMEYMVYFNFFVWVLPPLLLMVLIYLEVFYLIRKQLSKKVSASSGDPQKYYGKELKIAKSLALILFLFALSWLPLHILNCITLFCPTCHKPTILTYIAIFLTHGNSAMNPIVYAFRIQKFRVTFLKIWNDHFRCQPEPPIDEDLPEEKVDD
Description: (§1) The perfusion buffer consisted of 120 mM NaCl, 27 mM NaHCO3, 3.7 mM KCl, 1.3 mM KH2 PO4, 0.64 mM MgSO4, 1.3 mM CaCl2, 2 mM pyruvate, and 5 mM glucose. […] Continuous drainage of the left ventricle by means of a catheter inserted across the mitral valve insured that this cardiac chamber did no external work. An electrode in the right ventricle monitored the electrocardiogram. Timed collections of cardiac effluent in a graduated cylinder during the steady-state phase of the flow responses to compound administration measured total coronary flow, which was also monitored by an in-line electromagnetic flowmeter in the aortic perfusion cannula. The quotient of the ratio of compound infusion (mol/min) divided by coronary flow rate (L/min) equals agonist concentration in the perfusate. […] The quotient of the EC50 of stimulus-QRS prolongation divided by the EC50 of coronary vasodilation provided an index of selectivity.

A2 adenosine receptor [2] = biological target: A2 adenosine receptor (Cavia porcellus, UniProt P46616)
Chain of A2 adenosine receptor (Cavia porcellus, UniProt P46616) (P46616 whole entry): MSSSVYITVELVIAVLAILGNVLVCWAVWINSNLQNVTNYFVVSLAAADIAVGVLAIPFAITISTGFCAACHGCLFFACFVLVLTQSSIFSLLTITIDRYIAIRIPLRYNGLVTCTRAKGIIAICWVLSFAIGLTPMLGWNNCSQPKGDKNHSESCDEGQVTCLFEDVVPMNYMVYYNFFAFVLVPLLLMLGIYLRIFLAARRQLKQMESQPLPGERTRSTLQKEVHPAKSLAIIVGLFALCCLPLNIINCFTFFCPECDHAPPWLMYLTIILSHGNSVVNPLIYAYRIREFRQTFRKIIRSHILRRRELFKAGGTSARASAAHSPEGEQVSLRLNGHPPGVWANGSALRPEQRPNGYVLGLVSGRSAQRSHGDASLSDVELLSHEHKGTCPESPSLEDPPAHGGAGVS
Description: as §1

A2 adenosine receptor [3] = tested on: A2 adenosine receptor
Description: as §1

A1 adenosine receptor [4] = biological target: T1, A1 adenosine receptor; details: BIOASSAY RESULTS table
Description: as §1

A2 adenosine receptor [5] = details: read-out: EC50 for coronary vasodilation; coronary arteries (vasodilation); cited from earlier work
[6] = in words; cited from earlier work
[7] = -LOG EC50 A1, BIOASSAY RESULTS table, A1
[8] = EC50 -SQPR, prolongation of stimulus-QRS interval by 50% of maximum response, perfused guinea pig heart
[9] = -LOG EC50 A2, BIOASSAY RESULTS table, A2
[10] = EC50 -CF, coronary vasodilation, perfused guinea pig heart paced at 260 beats/min
[11] = concentration at appearance of second degree heart block
[12] = EC50-SQPR divided by EC50-CF, >1 indicates selectivity for A2 adenosine receptor

Compound	EC50 (A1 adenosine receptor [1]; [7]) [nM]	EC50 (A2 adenosine receptor [2]; [9]) [nM]	EC50 (A2 adenosine receptor [2]; [10]) [nM]	Selectivity (SQPR/CF) (A2 adenosine receptor [3]; [12])	minimal effective concentration (guinea pig heart; [11]) [µM]	further results
Nc1nc(NN=CC2CCCCC2)nc2c1ncn2[C@@H]1O[C@H](CO)[C@@H](O)[C@H]1O [Example 3, 6-amino-2-{2-[(cyclohexyl)methylene]diazanyl}-9-(β-D-ribofuranosyl)-9H-purine]	3550	0.257	0.3	–	–	minimal effective concentration (guinea pig heart): 5.92 µM; EC50 (A1 adenosine receptor [1]; [8]): 3550 nM; Selectivity (SQPR/CF) (A2 adenosine receptor [3]): 16,472
Cc1ccc(C=NNc2nc(N)c3ncn([C@@H]4O[C@H](CO)[C@@H](O)[C@H]4O)c3n2)cc1 [Example 9, 6-amino-2-{2-[(4-methylphenyl)methylene]diazanyl}-9-(β-D-ribofuranosyl)-9H-purine]	39800	–	–	–	–	Wenckbach (guinea pig heart; second degree heart block, unit printed nmol (Example 9)): 103,514 nmol
Nc1nc(N)c2ncn([C@@H]3O[C@H](CO)[C@@H](O)[C@H]3O)c2n1 [2-Amino-adenosine, reference compound]	–	224	–	–	–	EC50 (A1 adenosine receptor [1]): 11200 nM
Nc1nc(NN=CC2CC=CCC2)nc2c1ncn2[C@@H]1O[C@H](CO)[C@@H](O)[C@H]1O (some centres unmarked) [3-Cyclo-hexenyl, H]	–	–	–	–	–	-LOG EC50 A1 (A1 adenosine receptor [4]): 4.86
COc1ccc(C=NNc2nc(N)c3ncn([C@@H]4O[C@H](CO)[C@@H](O)[C@H]4O)c3n2)cc1 [Example 11, 6-amino-2-{2-[(4-methoxyphenyl)methylene]diazanyl}-9-(β-D-ribofuranosyl)-9H-purine]	–	–	–	–	50	–
Nc1nc(OCCC2CCCCC2)nc2c1ncn2[C@@H]1O[C@H](CO)[C@@H](O)[C@H]1O [2-(2-cyclohexylethoxy)adenosine]	–	–	–	–	–	EC50 (A2 adenosine receptor [5]): 1 nM
Nc1ncnc2c1ncn2[C@@H]1O[C@H](CO)[C@@H](O)[C@H]1O [Adenosine, 9-β-D-ribofuranosyl-9H-purin-6-amine]	–	–	–	–	–	cardiovascular activity [6]: hypotensive and bradycardia activity
Nc1nc(NN=Cc2ccc(Cl)cc2)nc2c1ncn2[C@@H]1O[C@H](CO)[C@@H](O)[C@H]1O [Example 1, 6-amino-2-{2-[(4-chlorophenyl)methylene]diazanyl}-9-(β-D-ribofuranosyl)-9H-purine]	–	–	–	–	30.4	–
Cc1cccc(C=NNc2nc(N)c3ncn([C@@H]4O[C@H](CO)[C@@H](O)[C@H]4O)c3n2)c1 [Example 16, 6-amino-2-{2-[(3-methylphenyl)methylene]diazanyl}-9-(β-D-ribofuranosyl)-9H-purine]	–	–	4.4	–	–	minimal effective concentration (guinea pig heart): 47 µM; Selectivity (SQPR/CF) (A2 adenosine receptor [3]): 4700
Nc1nc(NN=CCCC2CCCCC2)nc2c1ncn2[C@@H]1O[C@H](CO)[C@@H](O)[C@H]1O [2-C Hexylethyl, H]	9770	–	–	–	–	–
CCCCCC=NNc1nc(N)c2ncn([C@@H]3O[C@H](CO)[C@@H](O)[C@H]3O)c2n1 [1-Pent, H]	38900	1.02	–	–	–	–

Continued, in another order:

EC50 (A1 adenosine receptor [1]; [7]) [nM]	EC50 (A2 adenosine receptor [2]; [9]) [nM]	EC50 (A2 adenosine receptor [2]; [10]) [nM]	Selectivity (SQPR/CF) (A2 adenosine receptor [3]; [12])	Compound	minimal effective concentration (guinea pig heart; [11]) [µM]	further results
20900	0.468	–	–	CC(C)CCC=NNc1nc(N)c2ncn([C@@H]3O[C@H](CO)[C@@H](O)[C@H]3O)c2n1 [3-Me-1-Bu, H]	–	–
20000	79.4	80.4	301	NNc1nc(N)c2ncn([C@@H]3O[C@H](CO)[C@@H](O)[C@H]3O)c2n1 [Example 8, 6-amino-2-diazanyl-9-(β-D-ribofuranosyl)-9H-purine, reference compound]	18.2	EC50 (A1 adenosine receptor [1]; [8]): 14600 nM
–	–	14	4400	Nc1nc(NN=Cc2cccs2)nc2c1ncn2[C@@H]1O[C@H](CO)[C@@H](O)[C@H]1O [Example 15, 6-amino-2-{2-[(2-thienyl)methylene]diazanyl}-9-(β-D-ribofuranosyl)-9H-purine]	93	–
2630	4.17	4.2	767	Nc1nc(NN=Cc2ccc3ccccc3c2)nc2c1ncn2[C@@H]1O[C@H](CO)[C@@H](O)[C@H]1O [Example 4, 6-amino-2-{2-[(2-naphthyl)methylene]diazanyl}-9-(β-D-ribofuranosyl)-9H-purine]	10.1	–
66100	1.95	–	–	Nc1nc(NN=CCCCc2ccccc2)nc2c1ncn2[C@@H]1O[C@H](CO)[C@@H](O)[C@H]1O [3-Ph Propyl, H]	–	–
–	–	9.5	110	Nc1nc(NN=Cc2cccc3ccccc23)nc2c1ncn2[C@@H]1O[C@H](CO)[C@@H](O)[C@H]1O [Example 14, 6-amino-2-{2-[(1-naphthyl)methylene]diazanyl}-9-(β-D-ribofuranosyl)-9H-purine]	2	–
–	2.45	2.5	8,500	Nc1nc(NN=Cc2ccc(F)cc2)nc2c1ncn2[C@@H]1O[C@H](CO)[C@@H](O)[C@H]1O [Example 2, 6-amino-2-{2-[(4-fluorophenyl)methylene]diazanyl}-9-(β-D-ribofuranosyl)-9H-purine]	30.9	EC50 (A1 adenosine receptor [1]; [8]): 12600 nM
4170	3.24	3.2	1,822	CC(=NNc1nc(N)c2ncn([C@@H]3O[C@H](CO)[C@@H](O)[C@H]3O)c2n1)c1ccc(F)cc1 [Example 10, 6-amino-2-{2-[1-(4-fluorophenyl)ethylidene]diazanyl}-9-(β-D-ribofuranosyl)-9H-purine]	7.3	–
–	–	5.7	42,000	Nc1nc(NN=Cc2ccccn2)nc2c1ncn2[C@@H]1O[C@H](CO)[C@@H](O)[C@H]1O [Example 13, 6-amino-2-{2-[(2-pyridyl)methylene]diazanyl}-9-(β-D-ribofuranosyl)-9H-purine]	–	minimal effective concentration (guinea pig heart; second degree heart block, unit inferred): 110 µM
83200	2.29	2.3	43,347	Nc1nc(NN=Cc2ccccc2)nc2c1ncn2[C@@H]1O[C@H](CO)[C@@H](O)[C@H]1O [Example 7, 6-amino-2-{2-(phenylmethylene)diazanyl}-9-(β-D-ribofuranosyl)-9H-purine]	216	–
–	–	15	2,657	Nc1nc(NN=Cc2cccnc2)nc2c1ncn2[C@@H]1O[C@H](CO)[C@@H](O)[C@H]1O [Example 5, 6-amino-2-{2-[(3-pyridyl)methylene]diazanyl}-9-(β-D-ribofuranosyl)-9H-purine]	63.5	–
66100	1.78	–	–	Nc1nc(NN=CCCCC2CCCCC2)nc2c1ncn2[C@@H]1O[C@H](CO)[C@@H](O)[C@H]1O [3-C Hexylpropyl, H]	–	–
–	–	13	380	CC(=NNc1nc(N)c2ncn([C@@H]3O[C@H](CO)[C@@H](O)[C@H]3O)c2n1)c1ccccc1 [Example 12, 6-amino-2-{2-[1-(phenyl)ethylidene]diazanyl}-9-(β-D-ribofuranosyl)-9H-purine]	11	–
–	–	11	2,817	Nc1nc(NN=Cc2ccncc2)nc2c1ncn2[C@@H]1O[C@H](CO)[C@@H](O)[C@H]1O [Example 6, 6-amino-2-{2-[(4-pyridyl)methylene]diazanyl}-9-(β-D-ribofuranosyl)-9H-purine]	68	–

From patent US5278150A, “2-hydrazoadenosines and their utility for the treatmeat of vascular conditions” (Whitby Research, Inc., priority 1992, dated 1994)
